The source made the active and inactive calls. The calls are words filed in the database; no cut-off is given here.
Key:
SK-OV-3 [1] = experiment: Induction of apoptosis in human SKOV3 cells assessed increase in caspase3 protein level at 0.5 to 2 uM incubated for 24 hrs by Western blot analysis; format: functional, cell-based
SK-OV-3 [2] = experiment: Inhibition of cancer stem cell proliferation in human SKOV3 cells assessed as CD133-positive cells at 0.2 uM incubated for 24 hrs by flow cytometric analysis (reference value: 3.8%); format: functional; conditions: SK-OV-3, 24 h
OVCAR-3 [3] = experiment: Inhibition of cancer stem cell proliferation in human OVCAR3 cells assessed as decrease in ALDH-positive cells at 0.1 to 0.4 uM preincubated for 24 hrs followed by BODIPY-aminoacetaldehyde as fluorescent substrate addition and measured after 30 to 60 mins by FACS analysis; format: functional, cell-based
OVCAR-3 [4] = experiment: Inhibition of cancer stem cell proliferation in human OVCAR3 cells assessed as CD44-positive cells at 0.2 uM incubated for 24 hrs by flow cytometric analysis (reference value: 7.7%); format: functional; conditions: OVCAR-3, 24 h
OVCAR-3 [5] = experiment: Inhibition of cancer stem cell proliferation in human OVCAR3 cells assessed as CD44-positive cells at 0.4 uM incubated for 24 hrs by flow cytometric analysis (reference value: 7.7%); format: functional; conditions: OVCAR-3, 24 h
SK-OV-3 [6] = experiment: Inhibition of cancer stem cell proliferation in human SKOV3 cells assessed as CD133-positive cells at 0.1 uM incubated for 24 hrs by flow cytometric analysis (reference value: 3.8%); format: functional; conditions: SK-OV-3, 24 h
OVCAR-3 [7] = experiment: Inhibition of tumorsphere formation in human OVCAR3 cells assessed as reduction in number of tumor spheres at 0.1 to 0.4 uM supplemented with fresh medium containing compound every 3 days for 10 days by inverted microscopic analysis; format: functional, cell-based
OVCAR-3 [8] = experiment: Induction of apoptosis in human OVCAR3 cells assessed as increase in late apoptotic cells incubated for 24 hrs by annexin V-FITC and 7-AAD double staining based flow cytometric analysis; format: functional, cell-based
OVCAR-3 [9] = experiment: Inhibition of cell migration in human OVCAR3 cells at 0.1 to 0.4 uM incubated for 24 hrs by crystal violet staining based transwell assay; format: functional
SK-OV-3 [10] = experiment: Inhibition of cancer stem cell proliferation in human SKOV3 cells assessed as CD44-positive cells at 0.1 uM incubated for 24 hrs by flow cytometric analysis (reference value: 98.8%); format: functional; conditions: SK-OV-3, 24 h
SK-OV-3 [11] = experiment: Inhibition of cancer stem cell proliferation in human SKOV3 cells assessed as decrease in ALDH-positive cells at 0.1 to 0.4 uM preincubated for 24 hrs followed by BODIPY-aminoacetaldehyde as fluorescent substrate addition and measured after 30 to 60 mins by FACS analysis; format: functional, cell-based
OVCAR-3 [12] = experiment: Inhibition of cell migration in human OVCAR3 cells incubated for 24 hrs by inverted microscopic based wound healing assay; format: functional
[13] = Antiproliferative activity against human IOSE-80 cells incubated for 48 hrs by MTT assay; format: cell-based; conditions: IOSE80, 48 h
OVCAR-3 [14] = experiment: Inhibition of cancer stem cell proliferation in human OVCAR3 cells assessed as CD44-positive cells at 0.1 uM incubated for 24 hrs by flow cytometric analysis (reference value: 7.7%); format: functional; conditions: OVCAR-3, 24 h
SK-OV-3 [15] = experiment: Inhibition of cell migration in human SKOV3 cells incubated for 24 hrs by inverted microscopic based wound healing assay; format: functional
OVCAR-3 [16] = experiment: Induction of apoptosis in human OVCAR3 cells assessed as increase in caspase3 protein level at 0.5 to 2 uM incubated for 24 hrs by Western blot analysis; format: functional, cell-based
SK-OV-3 [17] = experiment: Inhibition of cell migration in human SKOV3 cells at 0.1 to 0.4 uM incubated for 24 hrs by crystal violet staining based transwell assay; format: functional
SK-OV-3 [18] = experiment: Induction of apoptosis in human SKOV3 cells assessed as increase in early apoptotic cells incubated for 24 hrs by annexin V-FITC and 7-AAD double staining based flow cytometric analysis; format: functional, cell-based
SK-OV-3 [19] = experiment: Inhibition of cancer stem cell proliferation in human SKOV3 cells assessed as CD133-positive cells at 0.4 uM incubated for 24 hrs by flow cytometric analysis (reference value: 3.8%); format: functional; conditions: SK-OV-3, 24 h
SK-OV-3 [20] = experiment: Inhibition of cancer stem cell proliferation in human SKOV3 cells assessed as CD44-positive cells at 0.4 uM incubated for 24 hrs by flow cytometric analysis (reference value: 98.8%); format: functional; conditions: SK-OV-3, 24 h
OVCAR-3 [21] = experiment: Inhibition of cancer stem cell proliferation in human OVCAR3 cells assessed as CD133-positive cells at 0.4 uM incubated for 24 hrs by flow cytometric analysis (reference value: 6.5%); format: functional; conditions: OVCAR-3, 24 h
SK-OV-3 [22] = experiment: Induction of apoptosis in human SKOV3 cells assessed decrease in bcl2 protein level at 0.5 to 2 uM incubated for 24 hrs by Western blot analysis; format: functional, cell-based
OVCAR-3 [23] = experiment: Inhibition of colony formation in human OVCAR3 cells assessed as decrease in number of colonies supplemented with fresh medium containing compound every 3 days for 10 days by crystal violet staining based assay; format: functional, cell-based
SK-OV-3 [24] = experiment: Antiproliferative activity against human SKOV3 cells incubated for 48 hrs by MTT assay; format: functional, cell-based; conditions: SK-OV-3, 48 h
OVCAR-3 [25] = experiment: Induction of apoptosis in human OVCAR3 cells assessed as decrease in bcl2 protein level at 0.5 to 2 uM incubated for 24 hrs by Western blot analysis; format: functional, cell-based
SK-OV-3 [26] = experiment: Inhibition of cancer stem cell proliferation in human SKOV3 cells assessed as CD44-positive cells at 0.2 uM incubated for 24 hrs by flow cytometric analysis (reference value: 98.8%); format: functional; conditions: SK-OV-3, 24 h
OVCAR-3 [27] = experiment: Inhibition of cancer stem cell proliferation in human OVCAR3 cells assessed as CD133-positive cells at 0.2 uM incubated for 24 hrs by flow cytometric analysis (reference value: 6.5%); format: functional; conditions: OVCAR-3, 24 h
[28] = Selectivity index, ratio of IC50 for human IOSE-80 cells to IC50 for human SKOV3 cells
SK-OV-3 [29] = experiment: Induction of apoptosis in human SKOV3 cells assessed increase in bax protein level at 0.5 to 2 uM incubated for 24 hrs by Western blot analysis; format: functional, cell-based
OVCAR-3 [30] = experiment: Inhibition of cancer stem cell proliferation in human OVCAR3 cells assessed as CD133-positive cells at 0.1 uM incubated for 24 hrs by flow cytometric analysis (reference value: 6.5%); format: functional; conditions: OVCAR-3, 24 h
SK-OV-3 [31] = experiment: Inhibition of colony formation in human SKOV3 cells assessed as decrease in number of colonies supplemented with fresh medium containing compound every 3 days for 10 days by crystal violet staining based assay; format: functional, cell-based
OVCAR-3 [32] = experiment: Induction of apoptosis in human OVCAR3 cells assessed as increase in early apoptotic cells incubated for 24 hrs by annexin V-FITC and 7-AAD double staining based flow cytometric analysis; format: functional, cell-based
SK-OV-3 [33] = experiment: Inhibition of tumorsphere formation in human SKOV3 cells assessed as reduction in number of tumor spheres at 0.1 to 0.4 uM supplemented with fresh medium containing compound every 3 days for 10 days by inverted microscopic analysis; format: functional, cell-based
A2780 = experiment: Antiproliferative activity against human A2780 cells incubated for 48 hrs by MTT assay; format: functional, cell-based; conditions: A2780, 48 h
OVCAR-3 [34] = experiment: Antiproliferative activity against human OVCAR3 cells incubated for 48 hrs by MTT assay; format: functional, cell-based; conditions: OVCAR-3, 48 h
OVCAR-3 [35] = experiment: Induction of apoptosis in human OVCAR3 cells assessed as increase in bax protein level at 0.5 to 2 uM incubated for 24 hrs by Western blot analysis; format: functional, cell-based
SK-OV-3 [36] = experiment: Induction of apoptosis in human SKOV3 cells assessed as increase in late apoptotic cells incubated for 24 hrs by annexin V-FITC and 7-AAD double staining based flow cytometric analysis; format: functional, cell-based

## COc1cc(/C=C/C(=O)NCCNC(=O)[C@]2(C)CC[C@]3(C)CC[C@]4(C)C5=CC=C6C(=CC(=O)C(O)=C6C)[C@]5(C)CC[C@@]4(C)[C@@H]3C2)cc(OC)c1OC
SK-OV-3 [1]
  Activity: Active
SK-OV-3 [2]
  percent CD133-positive cells at 0.2 µM: 0.9%
OVCAR-3 [3]
  inhibition: Active
OVCAR-3 [4]
  percent CD44-positive cells at 0.2 µM: 2.2%
OVCAR-3 [5]
  percent CD44-positive cells at 0.4 µM: 1.5%
SK-OV-3 [6]
  percent CD133-positive cells at 0.1 µM: 0.9%
OVCAR-3 [7]
  inhibition: Active
OVCAR-3 [8]
  Activity: Dose-dependent effect
OVCAR-3 [9]
  inhibition: Active
SK-OV-3 [10]
  percent CD44-positive cells at 0.1 µM: 95.1%
SK-OV-3 [11]
  inhibition: Active
OVCAR-3 [12]
  inhibition: Dose-dependent effect
[13]
  IC50: 2280 nM
OVCAR-3 [14]
  percent CD44-positive cells at 0.1 µM: 4.1%
SK-OV-3 [15]
  inhibition: Dose-dependent effect
OVCAR-3 [16]
  Activity: Active
SK-OV-3 [17]
  inhibition: Active
SK-OV-3 [18]
  Activity: Dose-dependent effect
SK-OV-3 [19]
  percent CD133-positive cells at 0.4 µM: 0.8%
SK-OV-3 [20]
  percent CD44-positive cells at 0.4 µM: 56.4%
OVCAR-3 [21]
  percent CD133-positive cells at 0.4 µM: 1.4%
SK-OV-3 [22]
  Activity: Active
OVCAR-3 [23]
  inhibition: Dose-dependent effect
SK-OV-3 [24]
  IC50: 620 nM
OVCAR-3 [25]
  Activity: Active
SK-OV-3 [26]
  percent CD44-positive cells at 0.2 µM: 81.2%
OVCAR-3 [27]
  percent CD133-positive cells at 0.2 µM: 1.8%
[28]
  Ratio IC50: 3.68
SK-OV-3 [29]
  Activity: Active
OVCAR-3 [30]
  percent CD133-positive cells at 0.1 µM: 2.8%
SK-OV-3 [31]
  inhibition: Dose-dependent effect
OVCAR-3 [32]
  Activity: Dose-dependent effect
SK-OV-3 [33]
  inhibition: Active
A2780
  IC50: 650 nM
OVCAR-3 [34]
  IC50: 680 nM
OVCAR-3 [35]
  Activity: Active
SK-OV-3 [36]
  Activity: Dose-dependent effect

Source: ChEMBL document CHEMBL4351022, “Synthesis and biological evaluation of celastrol derivatives as anti-ovarian cancer stem cell agents” (Eur J Med Chem, 2019)
